From patent publication US10017741B2, “Compositions and methods for obtaining enriched mesenchymal stem cell cultures” (StemCell Technologies Inc., priority 2013, dated 2018)
Entries after “also recorded” stand apart in the source; their conditions may differ.

Legend:
[1] = system: mouse BM-derived cells (MSC colonies); assay: Mouse BM-derived CFU-F assay; assay type: cell-based; conditions: 14 days
Method: a. Mouse BM and CB-Derived CFU-F Assay • 1. […] Medium was removed cultures washed with 2 mL PBS. • 4. Cells were fixed by adding 2 mL methanol/well and incubated at room temperature for 5 minutes. • 5. Methanol was removed and plates allowed to air dry for 5 minutes. • 6. To each well, 2 mL Toluidine blue solution was added and incubated for 30 minutes at room temperature. • 7. Toluidine blue solution was removed and wells rinsed with water. • 8. Water was removed and plates allowed to dry. • 9. Colony formation was assessed by enumeration and colony size. Mouse BM-derived cells were isolated as described previously and CFU-F assays setup as described above. […] Cultures were then stained with Toluidine blue and colony formation and appearance assessed. Three independent assays CFU-F assays for both BM- and CB-MSC were setup as in Example 4a and 4b. […] These assays were maintained for 14 days without media change. At the end of day 14, cultures were fixed and stained with toluidine blue and the number of MSC colonies counted.

[2] = system: 26 other kinases; conditions: cited from earlier work
[3] = system: mouse myeloid cells; conditions: at 700 nM; cited from earlier work
[4] = BM-MSC, assay 1, 1 uM GW2580, 1.0 × 10^6 cells plated
[5] = BM-MSC, assay 1, 1 uM GW2580, 2.5 × 10^5 cells plated
[6] = BM-MSC, assay 1, 1 uM GW2580, 5.0 × 10^5 cells plated
[7] = BM-MSC, assay 1, 1 uM GW2580, Sum of the three densities
[8] = BM-MSC, assay 2, 2.5 uM GW2580, 1.0 × 10^6 cells plated
[9] = BM-MSC, assay 2, 2.5 uM GW2580, 2.5 × 10^5 cells plated
[10] = BM-MSC, assay 2, 2.5 uM GW2580, 5.0 × 10^5 cells plated
[11] = BM-MSC, assay 2, 2.5 uM GW2580, Sum of the three densities
[12] = BM-MSC, assay 3, 2.5 uM GW2580, 1.0 × 10^6 cells plated
[13] = BM-MSC, assay 3, 2.5 uM GW2580, 2.5 × 10^5 cells plated
[14] = BM-MSC, assay 3, 2.5 uM GW2580, 5.0 × 10^5 cells plated
[15] = BM-MSC, assay 3, 2.5 uM GW2580, Sum of the three densities

With `COc1ccc(COc2ccc(Cc3cnc(N)nc3N)cc2OC)cc1` [GW2580, 5-(3-Methoxy-4-((4-methoxybenzyl)oxy)benzyl)pyrimidine-2,4-diamine] the “overall minimal increase in number of MSC colonies vs control” value ([1]; BM-MSC, 1 or 2.5 uM, three assays) was no less than 20%, the “% increase in number of MSC colonies vs control” value (“% increase in number” for short) [1, 4] was 26% and the “Number of MSC colonies” value [1, 4] was 227. The “% increase in number” value [1, 5] was 26%, the “Number of MSC colonies” value [1, 5] was 103 and the “% increase in number” value [1, 6] was 44%. For the same molecule, the “Number of MSC colonies” value [1, 6] was 201, the “% increase in number” value [1, 7] was 32% and the “Number of MSC colonies” value [1, 7] was 531. The “% increase in number” value [1, 8] was 21%, the “Number of MSC colonies” value [1, 8] was 34 and the “% increase in number” value [1, 9] was 0%. The “Number of MSC colonies” value [1, 9] was 3, the “% increase in number” value [1, 10] was 109% and the “Number of MSC colonies” value [1, 10] was 23. For the same molecule, the “% increase in number” value [1, 11] was 40%, the “Number of MSC colonies” value [1, 11] was 60 and the “% increase in number” value [1, 12] was 50%. The “Number of MSC colonies” value [1, 12] was 60, the “% increase in number” value [1, 13] was 67% and the “Number of MSC colonies” value [1, 13] was 5. For the same molecule, the “% increase in number” value [1, 14] was 70%, the “Number of MSC colonies” value [1, 14] was 17 and the “% increase in number” value [1, 15] was 55%. For the same molecule, the “Number of MSC colonies” value [1, 15] was 82, the “increase in colony number compared to control cultures” value ([1]; BM-derived, 1 μM) was “at least 20%” and the “MSC CFU-F appearance (colony size, macrophages)” value ([1]; BM-derived, 1 μM, Toluidine blue) was “bigger in size and have a much reduced number of macrophages; also recorded: larger, enriched MSC CFU-F that are mostly free of macrophages”. For the same molecule, the “activity against 26 other kinases tested” value [2] was “inactive” and the “inhibition of CSF-1-dependent growth of mouse myeloid cells” value [3] was “completely inhibited”.
